From Sander's compilation of Henry's law constants (doi:10.1111/j.1365-2621.1980.tb00916.x)

Experiment: Henry solubility constant Hcp at 298.15 K (mol/(m3 Pa))
Settings: reference: Mazza (1980)

| Compound | Henry solubility constant Hcp |
| --- | --- |
| C=CCSC [allyl methyl sulfide] | 0.005 |
| CCCSC [methyl propyl sulfide] | 0.0043 |
| CCO [ethanol] | 6.2 |
| CCCSSCCC [dipropyl disulfide] | 0.018 |
| Cc1ccc(C)s1 [2,5-dimethylthiophene] | 0.0037 |
| CC(C)O [2-propanol] | 2.1 |
| CCCS [1-propanethiol] | 0.0009 |
| C=CCSSCC=C [4,5-dithia-1,7-octadiene] | 0.0075 |
| C=CCSCC=C [3,3'-thiobis-1-propene] | 0.0071 |
| CCCO [1-propanol] | 3.7 |
